In patent publication US20260297060A1, “COMPOUNDS FOR THE DEGRADATION OF MUTANT BRAF” (C4 THERAPEUTICS, INC., priority 2023, published 2026):
Like-named read-outs stand apart in the source and are kept apart here.

Target: T1, BRAF V600E (Homo sapiens, UniProt P15056+Q96SW2, V600E)
T1 construct: knock-in of the HiBiT tag to the endogenous BRAF V600E locus; host or cells: A375.10 (A375 clonal line, CRISPR HiBiT knock-in at the endogenous BRAF V600E locus)
Assay: BRAF V600E HiBiT Degradation Assay
Type: cell-based
Procedure, shortened: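 Endogenous HiBiT knock-in on BRAF V600E in A375 cells (clone A375.10); 11-point half-log series, top 10 μM, 2, 6 or 24 h at 37° C. Lytic HiBiT luminescence, background-subtracted, normalized to DMSO; 4-parameter fit gives DC50, Emax (residual protein) and IP (inflection point).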

[1] = A375.10 cells, BRAF V600E, 6 hours, residual protein remaining, read-out: HiBiT-Degradation A375.10 BRAF 6 hours Emax
[2] = A375.10 cells, HiBiT, BRAF V600E, 24 hours, read-out: HiBiT-Degradation A375.10 BRAF 24 hours Emax
[3] = read-out: HiBiT-Degradation A375.10 BRAF 2 hours Emax, A375.10 cells, BRAF V600E, 2 hours, residual protein remaining
[4] = A375.10 cells, BRAF V600E, 2 hours, inflection point, read-out: HiBiT-Degradation A375.10 BRAF 2 hours IP
[5] = A375.10 cells, BRAF V600E, 2 hours, read-out: HiBiT-Degradation A375.10 BRAF 2 hours DC50
[6] = A375.10 cells, BRAF V600E, 2 hours, residual protein remaining, read-out: HiBiT-Degradation A375.10 BRAF 2 hours Emax
[7] = A375.10 cells, BRAF V600E, 6 hours, inflection point, read-out: HiBiT-Degradation A375.10 BRAF 6 hours IP
[8] = A375.10 cells, BRAF V600E, 6 hours, read-out: HiBiT-Degradation A375.10 BRAF 6 hours DC50
[9] = A375.10 cells, HiBiT, BRAF V600E, 24 hours, read-out: HiBiT-Degradation A375.10 BRAF 24 hours DC50
[10] = A375.10 cells, HiBiT, BRAF V600E, 24 hours, read-out: HiBiT-Degradation A375.10 BRAF 24 hours IP

T1 sequence (P15056 whole entry V600E): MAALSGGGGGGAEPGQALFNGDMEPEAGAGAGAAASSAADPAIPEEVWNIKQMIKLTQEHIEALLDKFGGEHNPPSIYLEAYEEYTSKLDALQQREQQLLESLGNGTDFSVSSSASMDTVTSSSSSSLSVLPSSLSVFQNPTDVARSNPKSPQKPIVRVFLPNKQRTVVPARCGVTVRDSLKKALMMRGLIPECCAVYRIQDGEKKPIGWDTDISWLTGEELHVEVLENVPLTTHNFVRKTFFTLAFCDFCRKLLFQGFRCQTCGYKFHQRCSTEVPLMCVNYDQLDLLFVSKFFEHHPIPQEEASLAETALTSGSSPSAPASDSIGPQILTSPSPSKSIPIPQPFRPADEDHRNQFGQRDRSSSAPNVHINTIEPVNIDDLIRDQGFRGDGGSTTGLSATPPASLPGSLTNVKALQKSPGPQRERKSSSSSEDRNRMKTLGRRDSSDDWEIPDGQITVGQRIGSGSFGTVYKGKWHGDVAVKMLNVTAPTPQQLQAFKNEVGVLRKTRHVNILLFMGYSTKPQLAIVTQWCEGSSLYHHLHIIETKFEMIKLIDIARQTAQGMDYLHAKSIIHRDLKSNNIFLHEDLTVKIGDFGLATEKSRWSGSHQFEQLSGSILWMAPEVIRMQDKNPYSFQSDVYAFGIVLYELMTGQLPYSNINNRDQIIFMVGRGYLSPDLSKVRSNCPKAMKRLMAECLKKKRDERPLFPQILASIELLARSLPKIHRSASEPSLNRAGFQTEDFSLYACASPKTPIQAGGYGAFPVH
T1 sequence (Q96SW2 whole entry): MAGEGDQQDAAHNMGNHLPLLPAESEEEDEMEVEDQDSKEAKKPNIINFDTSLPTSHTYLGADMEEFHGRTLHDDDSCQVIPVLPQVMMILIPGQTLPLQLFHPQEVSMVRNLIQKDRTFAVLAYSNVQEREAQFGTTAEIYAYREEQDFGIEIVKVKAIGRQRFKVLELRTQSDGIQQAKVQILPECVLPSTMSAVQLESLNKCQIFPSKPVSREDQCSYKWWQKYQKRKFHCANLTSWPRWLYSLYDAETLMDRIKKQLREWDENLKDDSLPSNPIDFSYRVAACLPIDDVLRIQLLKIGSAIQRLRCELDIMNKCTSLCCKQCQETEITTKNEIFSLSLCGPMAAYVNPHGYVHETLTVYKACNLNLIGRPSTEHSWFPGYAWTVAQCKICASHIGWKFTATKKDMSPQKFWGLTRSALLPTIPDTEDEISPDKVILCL
T1 sequence (Q16531 whole entry partner): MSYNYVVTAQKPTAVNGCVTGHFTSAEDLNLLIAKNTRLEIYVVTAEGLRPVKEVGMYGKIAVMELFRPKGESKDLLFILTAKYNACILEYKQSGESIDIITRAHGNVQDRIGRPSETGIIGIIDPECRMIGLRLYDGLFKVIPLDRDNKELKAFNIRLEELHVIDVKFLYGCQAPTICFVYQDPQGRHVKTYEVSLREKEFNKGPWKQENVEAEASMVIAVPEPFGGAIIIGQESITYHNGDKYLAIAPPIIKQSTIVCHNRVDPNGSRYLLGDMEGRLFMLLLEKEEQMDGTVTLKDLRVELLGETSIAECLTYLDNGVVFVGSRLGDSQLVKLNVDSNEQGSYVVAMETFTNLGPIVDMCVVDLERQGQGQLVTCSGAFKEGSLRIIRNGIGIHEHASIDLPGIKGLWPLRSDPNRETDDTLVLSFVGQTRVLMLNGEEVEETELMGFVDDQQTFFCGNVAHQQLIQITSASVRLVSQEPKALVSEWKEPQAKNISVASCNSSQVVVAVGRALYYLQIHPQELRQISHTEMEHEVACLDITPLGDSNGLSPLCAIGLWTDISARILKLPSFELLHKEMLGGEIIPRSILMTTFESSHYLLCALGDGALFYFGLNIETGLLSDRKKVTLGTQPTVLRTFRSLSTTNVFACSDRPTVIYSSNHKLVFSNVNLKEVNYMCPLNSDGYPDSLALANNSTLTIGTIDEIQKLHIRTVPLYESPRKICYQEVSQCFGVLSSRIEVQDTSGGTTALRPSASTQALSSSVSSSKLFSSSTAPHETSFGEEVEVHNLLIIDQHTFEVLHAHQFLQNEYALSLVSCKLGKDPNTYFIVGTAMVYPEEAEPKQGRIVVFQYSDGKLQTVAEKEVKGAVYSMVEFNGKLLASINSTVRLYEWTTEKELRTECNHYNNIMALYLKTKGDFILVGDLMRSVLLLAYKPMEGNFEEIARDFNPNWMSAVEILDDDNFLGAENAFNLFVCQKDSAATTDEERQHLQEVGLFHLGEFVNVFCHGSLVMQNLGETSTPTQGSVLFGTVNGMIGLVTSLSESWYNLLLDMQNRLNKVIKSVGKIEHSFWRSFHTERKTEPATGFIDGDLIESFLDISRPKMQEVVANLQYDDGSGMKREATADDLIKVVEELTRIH

CO[C@@H]1CCN(S(=O)(=O)Nc2ccc(F)c(Oc3ccc4ncn([C@H]5COC6(CCN(C7CC8(C7)CN(c7cc9c(cc7F)c(N7CCC(=O)NC7=O)nn9C)C8)CC6)C5)c(=O)c4c3)c2C#N)C1 [Compound 144, (3R)-N-[2-cyano-3-[3-[(3R)-8-[2-[3-(2,4-dioxohexahydropyrimidin-1-yl)-5-fluoro-1-methyl-indazol-6-yl]-2-azaspiro[3.3]heptan-6-yl]-1-oxa-8-azaspiro[4.5]decan-3-yl]-4-oxo-quinazolin-6-yl]oxy-4-fluoro-phenyl]-3-methoxy-pyrrolidine-1-sulfonamide]
Emax [1]: < 50% | Emax [2]: < 50% | DC50 (read-out: HiBiT-Degradation A375.10 BRAF 2 hours DC50, A375.10 cells, BRAF V600E, 2 hours): 1000 to 10000 nM | Emax [3]: 50 to 90% | DC50 (read-out: HiBiT-Degradation A375.10 BRAF 2 hours IP, A375.10 cells, BRAF V600E, 2 hours, inflection point): < 1000 nM | DC50 (read-out: HiBiT-Degradation A375.10 BRAF 6 hours DC50, A375.10 cells, BRAF V600E, 6 hours): < 1000 nM | DC50 (read-out: HiBiT-Degradation A375.10 BRAF 6 hours IP, A375.10 cells, BRAF V600E, 6 hours, inflection point): < 1000 nM | DC50 (read-out: HiBiT-Degradation A375.10 BRAF 24 hours DC50, A375.10 cells, HiBiT, BRAF V600E, 24 hours): < 1000 nM | DC50 (read-out: HiBiT-Degradation A375.10 BRAF 24 hours IP, A375.10 cells, HiBiT, BRAF V600E, 24 hours): < 1000 nM

CCN(C)S(=O)(=O)Nc1ccc(F)c(Oc2ccc3ncn([C@H]4COC5(CCN(C6CC(c7ccc(NC8CCC(=O)NC8=O)cc7F)C6)CC5)C4)c(=O)c3c2)c1C#N (single isomer, unassigned) [Compound 62]
DC50 [4]: < 1000 nM | DC50 [5]: < 1000 nM | Emax [6]: < 50% | DC50 [7]: < 1000 nM | DC50 [8]: < 1000 nM | Emax [1]: < 50% | DC50 [9]: < 1000 nM | Emax [2]: < 50% | DC50 [10]: < 1000 nM

CC(C)S(=O)(=O)Nc1ccc(F)c(Oc2ccc3ncn(C4CC5(CCN(C6CC7(C6)CN(c6cc8c(cc6F)c(N6CCC(=O)NC6=O)nn8C)C7)CC5)C4)c(=O)c3c2)c1C#N (stereo not drawn) [Compound 273, N-[2-cyano-3-[3-[7-[2-[3-(2,4-dioxohexahydropyrimidin-1-yl)-5-fluoro-1-methyl-indazol-6-yl]-2-azaspiro[3.3]heptan-6-yl]-7-azaspiro[3.5]nonan-2-yl]-4-oxo-quinazolin-6-yl]oxy-4-fluoro-phenyl]propane-2-sulfonamide]
DC50 [4]: < 1000 nM | DC50 [5]: < 1000 nM | Emax [3]: < 50%

CCN(C)S(=O)(=O)Nc1ccc(F)c(Oc2ccc3ncn([C@H]4COC5(CCN(C6CCC(c7cc8c(cc7F)c(N7CCC(=O)NC7=O)nn8C)CC6F)CC5)C4)c(=O)c3c2)c1C#N (single isomer, unassigned) [Compound 28]
DC50 [4]: < 1000 nM | DC50 [5]: < 1000 nM | DC50 [7]: < 1000 nM | DC50 [8]: < 1000 nM | Emax [1]: < 50% | DC50 [9]: < 1000 nM | Emax [2]: < 50% | DC50 [10]: < 1000 nM | Emax [3]: < 50%

CCN(C)S(=O)(=O)Nc1ccc(F)c(Oc2ccc3ncn([C@H]4COC5(CCC(N6CCC(c7cc8c(cc7F)c(N7CCC(=O)NC7=O)nn8C)C(F)(F)C6)CC5)C4)c(=O)c3c2)c1C#N (single isomer, unassigned) [Compound 39]
HiBiT-Degradation A375.10 BRAF 2 hours Emax: *** (<=50%) | DC50 [4]: < 1000 nM | DC50 [5]: < 1000 nM | DC50 [7]: < 1000 nM | DC50 [8]: < 1000 nM | HiBiT-Degradation A375.10 BRAF 6 hours Emax (A375.10 cells, BRAF V600E, 6 hours, residual protein remaining): *** (<=50%) | HiBiT-Degradation A375.10 BRAF 24 hours Emax (A375.10 cells, HiBiT, BRAF V600E, 24 hours): *** (<=50%) | DC50 [9]: < 1000 nM | DC50 [10]: < 1000 nM

CCN(C)S(=O)(=O)Nc1ccc(F)c(Oc2ccc3ncn([C@@H]4CCC5(CCN(C6CCC(c7cc8c(cc7F)c(N7CCC(=O)NC7=O)nn8C)CC6)CC5)C4)c(=O)c3c2)c1C#N (single isomer, unassigned) [Compound 31]
DC50 [4]: < 1000 nM | DC50 [5]: > 10000 nM | Emax [3]: 50 to 90%

CCN(C)S(=O)(=O)Nc1ccc(F)c(Oc2ccc3ncn([C@H]4COC5(CCN(C6CCC(c7ccc(N[C@@H]8CCC(=O)NC8=O)cc7F)CC6)CC5)C4)c(=O)c3c2)c1C#N (single isomer, unassigned) [Compound 4]
DC50 [4]: < 1000 nM | DC50 [5]: < 1000 nM | Emax [6]: < 50% | DC50 [7]: < 1000 nM | DC50 [8]: < 1000 nM | Emax [1]: < 50% | DC50 [9]: < 1000 nM | Emax [2]: < 50% | DC50 [10]: < 1000 nM

CCN(C)S(=O)(=O)Nc1ccc(F)c(Oc2ccc3ncc(OC4CC5(CCN(C6CCC(c7cc8c(cc7F)c(N7CCC(=O)NC7=O)nn8C)CC6)CC5)C4)nc3c2)c1C#N (single isomer, unassigned) [Compound 218, 7-[2-cyano-3-[[ethyl(methyl)sulfamoyl]amino]-6-fluoro-phenoxy]-2-[[7-[4-[3-(2,4-dioxohexahydropyrimidin-1-yl)-5-fluoro-1-methyl-indazol-6-yl]cyclohexyl]-7-azaspiro[3.5]nonan-2-yl]oxy]quinoxaline]
DC50 [4]: < 1000 nM | DC50 [5]: < 1000 nM | DC50 [9]: < 1000 nM | Emax [2]: < 50% | DC50 [10]: < 1000 nM | Emax [3]: < 50%

CCN(C)S(=O)(=O)Nc1ccc(F)c(Oc2ccc3ncn([C@H]4COC5(CCC(N6CCC(c7cc8c(cc7F)c(N7CCC(=O)NC7=O)nn8C)C(F)(F)C6)CC5)C4)c(=O)c3c2)c1C#N (single isomer, unassigned) [Compound 38]
DC50 [4]: < 1000 nM | DC50 [5]: < 1000 nM | DC50 [7]: < 1000 nM | DC50 [8]: < 1000 nM | Emax [1]: < 50% | DC50 [9]: < 1000 nM | Emax [2]: < 50% | DC50 [10]: < 1000 nM | Emax [3]: < 50%

CCN(C)S(=O)(=O)Nc1ccc(F)c(Oc2ccc3ncn(C4CC5(CCN(C6CCC(c7cc8c(cc7F)c(N7CCC(=O)NC7=O)nn8C)CC6F)CC5)C4)c(=O)c3c2)c1C#N (single isomer, unassigned) [Compound 85]
HiBiT-Degradation A375.10 BRAF 2 hours Emax: *** (<=50%) | DC50 [4]: < 1000 nM | DC50 [5]: < 1000 nM

CCN(C)S(=O)(=O)Nc1ccc(F)c(Oc2ccc3ncn([C@H]4COC5(CCN(C6CCC(c7cc8c(cc7F)c(N7CCC(=O)NC7=O)nn8C)CC6O)CC5)C4)c(=O)c3c2)c1C#N (single isomer, unassigned) [Compound 43]
DC50 [4]: < 1000 nM | DC50 [5]: < 1000 nM | Emax [6]: 50 to 90% | DC50 [7]: < 1000 nM | DC50 [8]: < 1000 nM | Emax [1]: < 50% | DC50 [9]: < 1000 nM | Emax [2]: < 50% | DC50 [10]: < 1000 nM

Cn1nc(N2CCC(=O)NC2=O)c2cc(F)c(C3CCC(N4CCC5(CC4)CC(n4cnc6ccc(Oc7c(F)ccc(NS(=O)(=O)N8CC[C@@H](F)C8)c7C#N)cc6c4=O)C5)CC3)cc21 (single isomer, unassigned) [Compound 122]
DC50 [4]: < 1000 nM | DC50 [5]: < 1000 nM | Emax [6]: < 50% | DC50 [7]: < 1000 nM | DC50 [8]: < 1000 nM | Emax [1]: < 50% | DC50 [9]: < 1000 nM | Emax [2]: < 50% | DC50 [10]: < 1000 nM

CCN(C)S(=O)(=O)Nc1ccc(F)c(Oc2ccc3ncn([C@H]4COC5(CCC(N6CC7(CN(c8ccc(NC9CCC(=O)NC9=O)cc8F)C7)C6)CC5)C4)c(=O)c3c2)c1C#N (stereo partly drawn) [Compound 30, 6-[2-cyano-3-[[ethyl(methyl)sulfamoyl]amino]-6-fluoro-phenoxy]-3-[(3R)-8-[6-[4-[(2,6-dioxo-3-piperidyl)amino]-2-fluoro-phenyl]-2,6-diazaspiro[3.3]heptan-2-yl]-1-oxaspiro[4.5]decan-3-yl]-4-oxo-quinazoline]
DC50 [4]: < 1000 nM | DC50 [5]: < 1000 nM | DC50 [7]: < 1000 nM | DC50 [8]: < 1000 nM | Emax [1]: < 50% | DC50 [9]: < 1000 nM | Emax [2]: < 50% | DC50 [10]: < 1000 nM | Emax [3]: < 50%

CCN(C)S(=O)(=O)Nc1ccc(F)c(Oc2ccc3ncc([C@H]4COC5(CCN(C6CCC(c7cc8c(cc7F)c(N7CCC(=O)NC7=O)nn8C)CC6F)CC5)C4)nc3c2)c1C#N (single isomer, unassigned) [Compound 160]
DC50 [4]: < 1000 nM | DC50 [5]: < 1000 nM | Emax [3]: < 50%

Cn1nc(N2CCC(=O)NC2=O)c2cc(F)c(C3CCC(N4CCC5(CC4)CC(n4cnc6ccc(Oc7c(F)ccc(NS(=O)(=O)C8CCCC8)c7C#N)cc6c4=O)C5)CC3)cc21 (single isomer, unassigned) [Compound 93, N-[2-cyano-3-[3-[7-[4-[3-(2,4-dioxohexahydropyrimidin-1-yl)-5-fluoro-1-methyl-indazol-6-yl]cyclohexyl]-7-azaspiro[3.5]nonan-2-yl]-4-oxo-quinazolin-6-yl]oxy-4-fluoro-phenyl]cyclopentanesulfonamide]
DC50 [4]: < 1000 nM | DC50 [5]: < 1000 nM | DC50 [7]: < 1000 nM | DC50 [8]: < 1000 nM | Emax [1]: < 50% | DC50 [9]: < 1000 nM | Emax [2]: < 50% | DC50 [10]: < 1000 nM | Emax [3]: < 50%
